Structures can show the parent of a compound that is named as a salt.
Tests used:
[1] = system: NHIK 3025 in vitro human uterine cervix carcinoma in situ cancer cells; conditions: preadministration of methionine, presumably a racemic mixture; cited from earlier work
CDDP nephrotoxicity = conditions: literature reports; cited from earlier work
CDDP anti-tumor action = conditions: literature reports; cited from earlier work
CDDP-induced weight loss = conditions: literature reports; cited from earlier work
male Wistar rats [2] = system: male Wistar rats
[3] = system: Walker 256 carcinosarcoma in the rat; conditions: Jones and Basinger; cited from earlier work
male Wistar rats [4] = system: male Wistar rats; remark: listed apart in the source
mice = conditions: 6 Gy/day for five days
Method: The experiment was conducted using a mouse model of radiation-induced lip erythema. Four groups of mice (n=5) were used. The first group (Group A) was an untreated, control group. The second group (Group B) was irradiated with ionizing radiation (6 Gy/day) for 5 days.

male Wistar rats [5] = assay: Auditory Brainstem Testing (ABR) thresholds in CDDP-treated rats; format: in vivo, rat
tumor bearing animals = conditions: pre or post treatment, 150 mg/Kg x5, i.p.
[6] = system: Human salivary gland epithelial cells; conditions: various concentrations of D-methionine (1.0-0.1 mg/ml) six hours prior to 10 Gy; after 24 Hrs
From the text: One set was untreated as a control and another was irradiated with 10 Gy the following morning.

male Wistar rats [7] = conditions: 75, 150 or 300 mg/kg D-methionine prior to 16 mg/kg CDDP
CDDP ototoxicity = conditions: animals; literature reports; cited from earlier work
hamsters = conditions: Church et al; cited from earlier work
patients = conditions: cited from earlier work

CSCC[C@H](N)C(=O)O (racemic) [methionine]
effect on CDDP cytotoxicity [1]: sensitized

CSc1ncccc1C(=O)O [2-(methylthio)nicotinic acid]
CDDP nephroprotection (CDDP nephrotoxicity): does not provide nephroprotection

O=C(O)CCCC[C@@H]1SC[C@@H]2NC(=O)N[C@@H]21 [Biotin]
CDDP nephroprotection (CDDP nephrotoxicity): good CDDP nephroprotection | effect on CDDP anti-tumor action (CDDP anti-tumor action): inhibits anti-tumor activity

C[C@H](CS)C(=O)N1CCC[C@H]1C(=O)O [Captropril]
CDDP nephroprotection (CDDP nephrotoxicity): protects against CDDP nephrotoxicity

CC1=C(C(=O)O)N2C(=O)[C@@H](NC(=O)[C@H](N)c3ccccc3)[C@H]2SC1 [Cephalexin]
protection against CDDP-induced weight loss (CDDP-induced weight loss): protects against CDDP-induced kidney dysfunction and weight loss

CSCC[C@@H](N)C(=O)O [D-methionine]
alopecia: coat and hair loss vs control group animals (male Wistar rats [2]; D-methionine prior to 16 mg/kg CDDP): significantly less hair loss | animals surviving to the end of the study period (male Wistar rats [2]; any level of D-methionine prior to 16 mg/kg CDDP): 15/15 | neuroprotection: activity and coordination vs surviving treated controls (male Wistar rats [2]; morning of the third day, D-methionine prior to 16 mg/kg CDDP): noticeably more lively, active, and coordinated | effect on CDDP anti-tumor action [3]: does not inhibit CDDP anti-tumor action | CDDP nephroprotection (CDDP nephrotoxicity): highly effective CDDP nephroprotection | weight loss vs treated control group (male Wistar rats [4]; 300 mg/kg D-methionine prior to 16 mg/kg CDDP, 3 days): significantly less than that in the treated control group | CDDP-induced weight loss, dose dependence (male Wistar rats [4]; 75, 150, 300 mg/kg D-methionine prior to 16 mg/kg CDDP): diminished as D-methionine dosing increased | lip erythema, post-treatment (mice; 150 mg/kg one hour after irradiation): prevented the occurrence of lip erythema | lip erythema, pre-treatment (mice; 150 mg/kg six hours prior to irradiation): prevented the occurrence of lip erythema | animals with complete otoprotection (no significant ABR threshold shift for any stimulus) (male Wistar rats [5]; 75 mg/kg D-methionine i.p. 30 minutes prior to 16 mg/kg CDDP, 3 days later): 2/5 | animals with complete otoprotection (no significant ABR threshold shift for any stimulus) (male Wistar rats [5]; 150 mg/kg D-methionine i.p. 30 minutes prior to 16 mg/kg CDDP, 3 days later): 3/5 | animals with complete otoprotection for all stimulus conditions (male Wistar rats [5]; 300 mg/kg D-methionine i.p. 30 minutes prior to 16 mg/kg CDDP, group of 5, 3 days later): 5 | post-test ABR thresholds vs treated control group, all stimuli (male Wistar rats [5]; any level of D-methionine (75, 150, 300 mg/kg) prior to 16 mg/kg CDDP): significantly lower ABR thresholds than the treated control group | interference with antitumor activity of ionizing radiation (tumor bearing animals): did not interfere with antitumor activity of ionizing radiation | apoptosis (cells having an apoptotic phenotype) [6]: about 20% | effect on CDDP anti-tumor action (CDDP anti-tumor action): without decreasing anti-tumor action | outer hair cell findings, middle and basal turns (male Wistar rats [7]): only the treated control group showed significantly different findings from the untreated control group

CCOC(=O)[C@@H](N)CS [Ethyl-L-cysteinate]
CDDP nephroprotection (CDDP nephrotoxicity): exacerbate CDDP nephrotoxicity

CSCC[C@H](N)C(N)=O [L-methioninamide]
CDDP nephroprotection (CDDP nephrotoxicity): excellent CDDP nephroprotection | effect on CDDP anti-tumor action (CDDP anti-tumor action): impairs CDDP anti-tumor action

CC(S)C(=O)NCC(=O)O (stereo not drawn) [N-(2-mercapto-propionyl)glycine]
CDDP nephroprotection (CDDP nephrotoxicity): exacerbate CDDP nephrotoxicity

O=S([O-])([O-])=S.[Na+].[Na+] [STS, sodium thiosulfate]
CDDP otoprotection (CDDP ototoxicity): good CDDP otoprotection | CDDP nephroprotection (CDDP nephrotoxicity): reduces CDDP nephrotoxicity and ototoxicity | effect on CDDP anti-tumor action (CDDP anti-tumor action): reduces the latter's tumoricidal action

Nc1ccc(S(=O)(=O)Nc2nccs2)cc1 [Sulfathiazole]
CDDP nephroprotection (CDDP nephrotoxicity): provides protection against CDDP nephrotoxicity | protection against CDDP-induced weight loss (CDDP-induced weight loss): not weight loss

NCCCNCCSP(=O)(O)O [WR2721]
protection from ototoxicity or mortality (hamsters): no WR2721 protection from ototoxicity or mortality | CDDP nephroprotection (CDDP nephrotoxicity): excellent CDDP nephroprotection | patients with mild to severe hearing loss (patients; WR2721 prior to CDDP, Glover et al.): 20 of 36 | incidence of significant hearing threshold shift (patients; patients pretreated with WR2721 prior to CDDP, Rubin et al.): 45%

CO[C@@]1(NC(=O)Cc2cccs2)C(=O)N2C(C(=O)O)=C(COC(N)=O)CS[C@@H]21 [cefoxitin]
CDDP nephroprotection (CDDP nephrotoxicity): does not provide nephroprotection | protection against CDDP-induced weight loss (CDDP-induced weight loss): some protection against CDDP-induced weight loss

CC1(C)S[C@@H]2[C@H](NC(=O)Cc3ccccc3)C(=O)N2[C@H]1C(=O)[O-].[Na+] [sodium salt of penicillin G, penicillin G]
CDDP nephroprotection (CDDP nephrotoxicity): does not protect against CDDP nephrotoxicity or weight loss | protection against CDDP-induced weight loss (CDDP-induced weight loss): does not protect against CDDP nephrotoxicity or weight loss

Cc1ncc(C[n+]2csc(CCO)c2C)c(N)n1 [thiamine-HCl]
CDDP nephroprotection (CDDP nephrotoxicity): does not protect against cisplatin nephrotoxicity or weight loss | protection against CDDP-induced weight loss (CDDP-induced weight loss): does not protect against cisplatin nephrotoxicity or weight loss

Source: patent US20050090551A1, “Therapeutic use of methionine for the treatment or prevention of mucositis” (Board of Trustees of Southern Illinois University, priority 2003, published 2005)
